Reference: patent US11813305B2, “Endoplasmic reticulum stress as a predictive tool in cancer therapy and a combination therapy for the treatment of cancer” (IMMUNE SYSTEM KEY LTD., priority 2016, dated 2023)
Square brackets hold non-standard residues; d marks the D form. Peptide text beside a SMILES is read from it.

Experiment: Pharmacokinetics of dTCApFs, phase I dose escalation study, i.v. 3 times/week
Settings: human, plasma
Method: The dose escalation study followed a traditional “3+3” scheme and included doses of 6, 12, 24, 48, and 96 mg/m^2 intravenous (i.v.) dTCApFs, 3 times/week in consecutive 28-day cycles. In all 3-patient cohorts, there were 2-4 weeks between the first dose for the first and second patients, and ≥1 week for the third patient. New dose levels started after follow up of ≥28 days for 3 patients at the previous level. MTD was defined as the highest dose level at which ≥1 of 3 subjects experience a DLT during their first cycle of treatment. […] In addition, PK parameters, including area under the curve (AUC), maximal plasma concentration (Cmax), and plasma half-life (t1/2) were determined. PK parameters were estimated using non-compartmental models.
dTCApFs powder for solution for injection is supplied as a lyophilized 5 mL vial containing either 15 mg (7.5 mg/mL) or 10 mL vial containing 80 mg (40 mg/mL) of the active substance with 4.8% mannitol, for reconstitution to a final volume of 2 mL with water for injection per vial as described above. The reconstituted 2 mL vial of dTCApFs powder for solution for injection must thereafter be diluted to a final volume 100 mL in aqueous Dextrose 5% for infusion for dose levels up to and including 48 mg/m2. For dose levels above 48 mg/m2, the final dilution volume was 250 mL. dTCApFs for injection was administered intravenously (iv) during 60 minutes.
PK parameters, including AUC (0-24), Cmax, Cmin, Tmax and t1/2 are estimated using non-compartmental models. Comparisons across dose levels are made to assess proportionality.

`CC(C)C[C@@H](NC(=O)[C@H](NC(=O)[C@@H](CO)NC(=O)[C@H]1CCCN1C(=O)[C@@H](CC(C)C)NC(=O)[C@@H](Cc1ccccc1)NC(=O)[C@@H](Cc1ccccc1)NC(=O)[C@H](NC(=O)[C@@H](Cc1c[nH]c2ccccc12)NC(=O)[C@H](N)Cc1c[nH]c2ccccc12)[C@H](C)O)[C@H](C)O)C(=O)N[C@H](Cc1c[nH]c2ccccc12)C(=O)N[C@H](CCC(=O)O)C(=O)N[C@H](CCCNC(=N)N)C(=O)N[C@H](CCCCN)C(=O)O` [dTCApFs, Trp Trp Thr Phe Phe Leu Pro Ser Thr Leu Trp Glu Arg Lys] (H-[dW][dW][dT][dF][dF][dL][dP][dS][dT][dL][dW][dE][dR][dK]-OH; N-terminus and C-terminus assumed) showed a Cmax (intravenous, 12 mg/m^2, Cmax, Cycle 2, Day 1, 12 mg/m^2, n = 4) of 6050 ng/mL, a Cmax (intravenous, 24 mg/m^2, Cmax, Cycle 2, Day 1, 24 mg/m^2, n = 4) of 14600 ng/mL and an AUC (intravenous, 96 mg/m^2, AUC0, Cycle 2, Day 1, 96 mg/m^2, n = 3) of 295000 ng·h/mL. The AUC (iv, 6 mg/m2, AUC0, Cycle 1, Day 1, 6 mg/m^2, n = 3) was 3810 ng·h/mL, the AUC (iv, 6 mg/m2, AUC0, Cycle 2, Day 1, 6 mg/m^2, n = 3) was 9720 ng·h/mL and the Cmax (iv, 6 mg/m2, Cmax, Cycle 1, Day 1, 6 mg/m^2, n = 3) was 1210 ng/mL. For the same molecule, the Cmax (iv, 6 mg/m2, Cmax, Cycle 2, Day 1, 6 mg/m^2, n = 3) was 1540 ng/mL, the half-life (iv, 6 mg/m2, T1/2, Cycle 1, Day 1, 6 mg/m^2, n = 3) was 2.3 h and the half-life (iv, 6 mg/m2, T1/2, Cycle 2, Day 1, 6 mg/m^2, n = 3) was 2.8 h. The AUC (iv, 12 mg/m2, AUC0, Cycle 1, Day 1, 12 mg/m^2, n = 4) was 12900 ng·h/mL, the AUC (iv, 12 mg/m2, AUC0, Cycle 2, Day 1, 12 mg/m^2, n = 4) was 11500 ng·h/mL and the Cmax (iv, 12 mg/m2, Cmax, Cycle 1, Day 1, 12 mg/m^2, n = 4) was 6050 ng/mL. For the same molecule, the half-life (iv, 12 mg/m2, T1/2, Cycle 1, Day 1, 12 mg/m^2, n = 4) was 2.1 h, the half-life (iv, 12 mg/m2, T1/2, Cycle 2, Day 1, 12 mg/m^2, n = 4) was 2 h and the AUC (iv, 24 mg/m2, AUC0, Cycle 1, Day 1, 24 mg/m^2, n = 4) was 49600 ng·h/mL. The AUC (iv, 24 mg/m2, AUC0, Cycle 2, Day 1, 24 mg/m^2, n = 4) was 57100 ng·h/mL, the Cmax (iv, 24 mg/m2, Cmax, Cycle 1, Day 1, 24 mg/m^2, n = 4) was 14600 ng/mL and the half-life (iv, 24 mg/m2, T1/2, Cycle 1, Day 1, 24 mg/m^2, n = 4) was 3.2 h. It also gave a half-life (iv, 24 mg/m2, T1/2, Cycle 2, Day 1, 24 mg/m^2, n = 4) of 3.7 h, an AUC (iv, 48 mg/m2, AUC0, Cycle 1, Day 1, 48 mg/m^2, n = 4) of 79900 ng·h/mL and an AUC (iv, 48 mg/m2, AUC0, Cycle 2, Day 1, 48 mg/m^2, n = 4) of 100000 ng·h/mL. For the same molecule, the Cmax (iv, 48 mg/m2, Cmax, Cycle 1, Day 1, 48 mg/m^2, n = 4) was 18300 ng/mL, the Cmax (iv, 48 mg/m2, Cmax, Cycle 2, Day 1, 48 mg/m^2, n = 4) was 22100 ng/mL and the half-life (iv, 48 mg/m2, T1/2, Cycle 1, Day 1, 48 mg/m^2, n = 4) was 4.9 h. The half-life (iv, 48 mg/m2, T1/2, Cycle 2, Day 1, 48 mg/m^2, n = 4) was 4.6 h, the AUC (iv, 96 mg/m2, AUC0, Cycle 1, Day 1, 96 mg/m^2, n = 3) was 207000 ng·h/mL and the Cmax (iv, 96 mg/m2, Cmax, Cycle 1, Day 1, 96 mg/m^2, n = 3) was 33000 ng/mL. For the same molecule, the Cmax (iv, 96 mg/m2, Cmax, Cycle 2, Day 1, 96 mg/m^2, n = 3) was 32000 ng/mL, the half-life (iv, 96 mg/m2, T1/2, Cycle 1, Day 1, 96 mg/m^2, n = 3) was 6 h and the half-life (iv, 96 mg/m2, T1/2, Cycle 2, Day 1, 96 mg/m^2, n = 3) was 8.5 h.
